Assay results published in US9802917B2, “Particles of N-(5-cyano-4-((2-methoxyethyl)amino)pyridin-2-yl)-7-formyl-6-((4-methyl-2-oxopiperazin-1-yl)methyl)-3,4-dihydro-1,8-naphthyridine-1(2H)-carboxamide” (Novartis AG, priority 2015, dated 2017).
Structures can show the parent of a compound that is named as a salt.

Columns and labels:
[1] = Basic flow energy measurement (FT4 powder rheometer); assay type: physicochemical; conditions: 25 mm vessel, 23.5 mm blade
Protocol: Basic flow energy (BFE) is the energy required to establish a particular flow pattern in a conditioned, precise volume of powder. This flow pattern is a downward anti-clockwise motion of the blade, generating a compressive, relatively high stress flow mode in the powder. The BFE is calculated from the work done in moving the blade through the powder from the top of the vessel to the bottom, i.e. during the downward traverse.
In the present instance, the basic flow energy was measured using a FT4 powder rheometer from Freeman Technology under the following conditions: vessel size: 25 mm; standard Program Name: 25 mm_1C_Split_1 T; Starting accessory: 23.5 mm blade; Vessel: 25 mm×25 mL Split Vessel. The results were plotted in FIG. 9.

[2] = test system: HuH-7 hepatocellular carcinoma cells; assay: Methylene blue staining proliferation assay (MBS); assay type: cell-based; conditions: Homo sapiens, HuH-7 cells, 72 hours, read-out: HUH7 proliferation (nM) MBS
Protocol: Using a liquid handling device (Velocity 11 Bravo, Agilent), serial 3-fold dilutions of compounds were prepared in DMSO, prediluted in growth medium, followed by transfer of 10 uL/well to the cell plates. […] For data analysis, the assay background was determined in wells containing medium and lysis buffer, but no cells, and the corresponding value subtracted from all data points. […] Compound concentrations leading to half-maximal signal inhibition ([…]) were determined by standard four parametric curve fitting (XLfit 5.4, IDBS). […] Optical density was measured at A650 nm. […]

[3] = test system: HuH-7 hepatocellular carcinoma cells; assay: CellTiter Glo (CTG) proliferation/viability assay; assay type: cell-based; conditions: Homo sapiens, 72 h, HuH-7 cells, 3 days, GI50, read-out: HUH7 proliferation (nM) CTG
Protocol: CellTiter Glo (CTG) Assay: […] Compound-mediated suppression of cell proliferation/viability is assessed by quantification of cellular ATP levels using the CellTiter-Glo (CTG) reagent (Promega, Cat# G7573). Briefly, cells are seeded at 3'000 cells/well/80 μl fresh medium into tissue-culture-treated 96-well plates (Costar Cat#3904), followed by addition of 20 μl medium containing compound dilutions at 5-fold their final intended concentration. Dose-response effects are assessed by 3-fold serial dilutions of the test compound, starting at 10 μM. Following incubation of the cells for 3 days at 37° C. and 5% CO2, the effect of inhibitors on cell viability is quantified following addition of 50 μl CTG and luminescence measurement (integration time: 500 ms) as per vendor manual, using a correspondingly equipped multi-mode plate reader ([…], TECAN, Switzerland). For data analysis, the assay background value determined in wells containing medium, but no cells, is subtracted from all data points. To enable differentiation of cytotoxic from cytostatic compounds, the number of viable cells is assessed relative to that observed at the time of compound addition using a separate cell plate (day 0). […] Compound concentrations leading to half-maximal growth inhibition (GI50) are determined using standard four parameter curve fitting (XLfit 5.2, IDBS, UK).

[4] = Laser diffraction particle size measurement of particles of reference example 1 (Example 4); assay type: physicochemical; conditions: laser light diffraction, after 240 seconds sonication, FIG. 7
Description: For the measurement, a Sympatec HELOS device with a focal length of 100 mm from Sympatec GmbH, Germany, equipped with a wet dispersion device Cuvette from Sympatec GmbH, Germany was used. The test substance was dispersed in white spirit, Brenntag Schweizerhall AG, Switzerland (catalog number 12200-150) using a dispersing aid (e.g. Statsafe™ 6000, INNOSPEC Limited, ca. 1% in the white spirit).
The particles were mixed intensively, e.g. on a vortex mixer, in order to wet the substance thoroughly and to form a smooth and homogeneous paste. The paste was diluted with the white spirit to a final volume of several milliliters and the stock dispersion was mixed again.
The test dispersion was prepared by diluting of the stock dispersion with white spirit for an appropriate optical concentration and the cumulative volume distribution was determined using a laser light diffraction instrument in accordance with the instruction manual. Measurements were made before sonication and after sonication for up to 600 seconds. The parameters were set as follows: 50% amplitude at the ultrasonication device USGD-100 from Telsonic AG, and a measuring duration of about 20 seconds. The measurement was carried out twice.
The particle sizes at the undersize values of 10%, 50% and 90% (x10, x50, x90) were evaluated from the cumulative volume distribution after 240 seconds sonication. This was determined to be representative of the primary particle sizes.

[5] = Compressibility measurement (FT-4 powder rheometer); assay type: physicochemical; conditions: measured at 15 kPa normal stress
Description: Compressibility is a measure of how density changes as a function of applied normal stress. By definition, compressibility is the percent change in volume after compression (%). The measurements were made using a FT-4 powder rheometer from Freeman technology. N-(5-cyano-4-((2-methoxyethyl)amino)pyridin-2-yl)-7-formyl-6-((4-methyl-2-oxopiperazin-1-yl)methyl)-3,4-dihydro-1,8-naphthyridine-1(2H)-carboxamide particles obtained by the process of the present invention and particles obtained by the process described in PCT/IB2014/065585 were placed in a vessel and a vented piston was used to compress the particles. The vented piston is designed such that the compression face is constructed from a woven stainless steel mesh and allows the entrained air in the powder to escape uniformly across the surface of the powder bed. A normal stress was applied in 8 sequential compression steps beginning at 0.5 kPa and ending at 15 kPa. In each step, the normal stress was held constant for 60 seconds and the compressibility was automatically calculated as a percentage change in volume. The results were plotted in FIG. 10. The compressibility percentage measured at 15 kPa was 54.14% and 54.63% for particles of the present invention. For the particles obtained by the process described in PCT/IB2014/065585, the compressibility percentage measured at 15 kPa was 49.93%.

[6] = Wall friction angle measurement (FT-4 powder rheometer, stainless steel); assay type: physicochemical; conditions: 316 Stainless Steel discs, 1.2 microns average roughness
Description: The wall friction test method has been developed to assess the interaction between the drug substance and stainless steel. The apparatus used is a FT-4 powder rheometer from Freeman technology.
N-(5-cyano-4-((2-methoxyethyl)amino)pyridin-2-yl)-7-formyl-6-((4-methyl-2-oxopiperazin-1-yl)methyl)-3,4-dihydro-1,8-naphthyridine-1(2H)-carboxamide particles obtained by the process of the present invention and particles obtained by the process described in PCT/IB2014/065585 were placed in a vessel containing the sample and a wall friction head to induce both vertical and rotational stresses. The powder sample is prepared by conditioning and then pre-consolidation using the standard FT4 blade and vented piston.
The wall friction head equipped with 1.2 microns average roughness of 316 Stainless Steel discs moves downwards to the surface of the sample and induces a normal stress as the disc contacts the top of the sample. The head continues to move downwards until the required normal stress is established. […] The torque required to maintain this rotational is measured which enables a “steady-state” shear stress to be calculated. […] A series of shear stress values is measured for a range of target applied stresses. […] The wall friction angle is then calculated by drawing a best fit line through the data points on the graph, and measuring the angle subtended between this best fit line and the horizontal. […]

`COCCNc1cc(NC(=O)N2CCCc3cc(CN4CCN(C)CC4=O)c(C=O)nc32)ncc1C#N` [Example 1, N-(5-cyano-4-((2-methoxyethyl)amino)pyridin-2-yl)-7-formyl-6-((4-methyl-2-oxopiperazin-1-yl)methyl)-3,4-dihydro-1,8-naphthyridine-1(2H)-carboxamide in citric acid salt form 1:1] showed a basic flow energy [1] of 65.07 mJ, an IC50 [2] of 12 nM and an IC50 [3] of 60.9 nM.

With `COCCNc1cc(NC(=O)N2CCCc3cc(CN4CCN(C)CC4=O)c(C=O)nc32)ncc1C#N.O=C(O)CC(O)(CC(=O)O)C(=O)O` [Example 1a, N-(5-cyano-4-((2-methoxyethyl)amino)pyridin-2-yl)-7-formyl-6-((4-methyl-2-oxopiperazin-1-yl)methyl)-3,4-dihydro-1,8-naphthyridine-1(2H)-carboxamide in citric acid form (1:1)] the basic flow energy [1] was 39.17 mJ.

In the case of `COCCNc1cc(NC(=O)N2CCCc3cc(CN4CCN(C)CC4=O)c(C=O)nc32)ncc1C#N.O=C(O)CC(O)(CC(=O)O)C(=O)O` [Reference Example 1, N-(5-cyano-4-((2-methoxyethyl)amino)pyridin-2-yl)-7-formyl-6-((4-methyl-2-oxopiperazin-1-yl)methyl)-3,4-dihydro-1,8-naphthyridine-1(2H)-carboxamide in citric acid form (1:1)], the basic flow energy ([1]; listed as particles obtained by the process described in PCT/IB2014/065585) was 185.20 mJ, the “median particle size (x50 or d50)” value [4] was “about 3 microns” and the “particle size x10 or d10” value [4] was “about 1 micron”. The “particle size x90 or d90” value [4] was “about 7 micron”, the compressibility percentage [5] was 49.93% and the wall friction angle [6] was 43.18 °.
